This is an account of results in patent US20120165384A1, “INHIBITION OF HISTONE ACETYLTRANSFERASES BY CTK7A AND METHODS THEREOF” (JAWAHARLAL NEHRU CENTRE FOR ADVANCED SCIENTIFIC RESEARCH, priority 2009, published 2012).

In one experiment the target is T1, CBP (Homo sapiens, UniProt Q92793).
T1 construct: Recombinant baculovirus expressing full-length FLAG-tagged CARM1,CBP and PCAF; FLAG; made in house; host or cells: baculovirus-infected Sf21 cells
The experiment is described as follows: HAT assay with recombinant CBP. The class given is biochemical. How it is done: (§1) Recombinant baculovirus expressing full-length FLAG-tagged CARM1,CBP and PCAF were purified by immunoaffinity chromatography using M2-agarose beads followed by elution with FLAG peptide. Baculovirus-expressed full-length hexahistidine-tagged p300, and G9a were purified using Ni-NTA affinity chromatography as described previously^30.
(§2) HAT gel fluorography/autoradiography assays were performed as previously reported^30. Kinetic analysis of p300 HAT inhibition was performed as reported earlier^31 in the presence of (0, 30 and 50 μM) CTK7A. The obtained values were plotted as a lineweaver burk plot using Graphpad Prism software. For p300 Autoacetylation assay, reactions of p300 full length (80 ng) were carried out in HAT assay buffer at 30° C. for 10 minutes with or without the protein (NPM1) followed by addition of 1 μl of 4.7 Ci/mmol [^3H] acetyl CoA (NEN-PerkinElmer) and were further incubated for another 10 min in a 30 μl reaction. GAPDH was used as positive control. The radio-labeled acetylated p300 were processed by fluorography followed by autoradiography.

The target in a further experiment is Tip60 (Homo sapiens, UniProt Q92993). Kind of experiment: HAT assay, Tip60. The class given is biochemical. The following applies: even at 100 μM. The procedure: as §2
Sequence of Tip60 (Q92993 whole entry, species assumed): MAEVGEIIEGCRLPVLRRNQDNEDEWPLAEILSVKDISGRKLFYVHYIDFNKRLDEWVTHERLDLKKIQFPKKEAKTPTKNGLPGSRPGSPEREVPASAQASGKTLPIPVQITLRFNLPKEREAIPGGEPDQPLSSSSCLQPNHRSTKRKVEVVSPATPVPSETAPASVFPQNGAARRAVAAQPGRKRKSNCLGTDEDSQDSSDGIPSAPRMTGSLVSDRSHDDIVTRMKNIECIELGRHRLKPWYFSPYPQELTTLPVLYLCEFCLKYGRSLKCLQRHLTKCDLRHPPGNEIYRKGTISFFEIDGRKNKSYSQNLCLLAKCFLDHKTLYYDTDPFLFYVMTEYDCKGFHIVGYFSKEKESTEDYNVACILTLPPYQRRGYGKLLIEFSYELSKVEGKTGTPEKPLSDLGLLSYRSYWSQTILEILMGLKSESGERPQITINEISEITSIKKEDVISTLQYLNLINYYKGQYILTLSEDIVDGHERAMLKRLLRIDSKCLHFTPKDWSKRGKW
The next experiment addresses T2, SIRT2 (Homo sapiens, UniProt Q8IXJ6).
T2 construct: made in house
T2 sequence (Q8IXJ6 1-389): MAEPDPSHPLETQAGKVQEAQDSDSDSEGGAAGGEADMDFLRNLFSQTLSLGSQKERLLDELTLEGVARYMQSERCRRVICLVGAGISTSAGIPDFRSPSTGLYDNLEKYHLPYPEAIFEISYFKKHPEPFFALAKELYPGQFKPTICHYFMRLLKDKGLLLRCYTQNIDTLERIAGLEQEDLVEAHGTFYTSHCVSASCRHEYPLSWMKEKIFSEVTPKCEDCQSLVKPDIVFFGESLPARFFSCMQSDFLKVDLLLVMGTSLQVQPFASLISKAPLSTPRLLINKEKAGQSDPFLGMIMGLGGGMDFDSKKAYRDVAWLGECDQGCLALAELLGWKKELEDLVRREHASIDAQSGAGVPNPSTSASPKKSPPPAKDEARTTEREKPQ
The experiment is described as follows: SirT2 deacetylase assay. In kind it is biochemical. As to conditions: even at 100 μM. The procedure:
The deacetylation assay was performed as per standard protocol^31. For SirT2 deacetylase assay, 50 ng of bacterially expressed, recombinant enzyme was added in the presence or absence of cofactor NAD^+. HMTase was performed as reported earlier^31.

The target in experiment [1] is T3, p300 (Homo sapiens, UniProt Q09472). The experiment is described as follows: p300 autoacetylation enhanced by cocktail of HDAC inhibitors (immunoprecipitation). In kind it is cell-based. The procedure: Whole cell extract were prepared using RIPA buffer as mentioned above. The pre-blocked protein-G sepharose-bound antibody (4 μg) was incubated with 500 μg whole cell lysate overnight at 4° C. After extensive washes, bead-bound protein were analysed by western blotting with indicated antibodies. For HDAC inhibitors treatment, 5 mM sodium butyrate, 5 mM nicotiamide and 100 ng ml^−1 TSA were added 10 h before cells were harvest^36.
T3 sequence (Q09472 whole entry, species assumed): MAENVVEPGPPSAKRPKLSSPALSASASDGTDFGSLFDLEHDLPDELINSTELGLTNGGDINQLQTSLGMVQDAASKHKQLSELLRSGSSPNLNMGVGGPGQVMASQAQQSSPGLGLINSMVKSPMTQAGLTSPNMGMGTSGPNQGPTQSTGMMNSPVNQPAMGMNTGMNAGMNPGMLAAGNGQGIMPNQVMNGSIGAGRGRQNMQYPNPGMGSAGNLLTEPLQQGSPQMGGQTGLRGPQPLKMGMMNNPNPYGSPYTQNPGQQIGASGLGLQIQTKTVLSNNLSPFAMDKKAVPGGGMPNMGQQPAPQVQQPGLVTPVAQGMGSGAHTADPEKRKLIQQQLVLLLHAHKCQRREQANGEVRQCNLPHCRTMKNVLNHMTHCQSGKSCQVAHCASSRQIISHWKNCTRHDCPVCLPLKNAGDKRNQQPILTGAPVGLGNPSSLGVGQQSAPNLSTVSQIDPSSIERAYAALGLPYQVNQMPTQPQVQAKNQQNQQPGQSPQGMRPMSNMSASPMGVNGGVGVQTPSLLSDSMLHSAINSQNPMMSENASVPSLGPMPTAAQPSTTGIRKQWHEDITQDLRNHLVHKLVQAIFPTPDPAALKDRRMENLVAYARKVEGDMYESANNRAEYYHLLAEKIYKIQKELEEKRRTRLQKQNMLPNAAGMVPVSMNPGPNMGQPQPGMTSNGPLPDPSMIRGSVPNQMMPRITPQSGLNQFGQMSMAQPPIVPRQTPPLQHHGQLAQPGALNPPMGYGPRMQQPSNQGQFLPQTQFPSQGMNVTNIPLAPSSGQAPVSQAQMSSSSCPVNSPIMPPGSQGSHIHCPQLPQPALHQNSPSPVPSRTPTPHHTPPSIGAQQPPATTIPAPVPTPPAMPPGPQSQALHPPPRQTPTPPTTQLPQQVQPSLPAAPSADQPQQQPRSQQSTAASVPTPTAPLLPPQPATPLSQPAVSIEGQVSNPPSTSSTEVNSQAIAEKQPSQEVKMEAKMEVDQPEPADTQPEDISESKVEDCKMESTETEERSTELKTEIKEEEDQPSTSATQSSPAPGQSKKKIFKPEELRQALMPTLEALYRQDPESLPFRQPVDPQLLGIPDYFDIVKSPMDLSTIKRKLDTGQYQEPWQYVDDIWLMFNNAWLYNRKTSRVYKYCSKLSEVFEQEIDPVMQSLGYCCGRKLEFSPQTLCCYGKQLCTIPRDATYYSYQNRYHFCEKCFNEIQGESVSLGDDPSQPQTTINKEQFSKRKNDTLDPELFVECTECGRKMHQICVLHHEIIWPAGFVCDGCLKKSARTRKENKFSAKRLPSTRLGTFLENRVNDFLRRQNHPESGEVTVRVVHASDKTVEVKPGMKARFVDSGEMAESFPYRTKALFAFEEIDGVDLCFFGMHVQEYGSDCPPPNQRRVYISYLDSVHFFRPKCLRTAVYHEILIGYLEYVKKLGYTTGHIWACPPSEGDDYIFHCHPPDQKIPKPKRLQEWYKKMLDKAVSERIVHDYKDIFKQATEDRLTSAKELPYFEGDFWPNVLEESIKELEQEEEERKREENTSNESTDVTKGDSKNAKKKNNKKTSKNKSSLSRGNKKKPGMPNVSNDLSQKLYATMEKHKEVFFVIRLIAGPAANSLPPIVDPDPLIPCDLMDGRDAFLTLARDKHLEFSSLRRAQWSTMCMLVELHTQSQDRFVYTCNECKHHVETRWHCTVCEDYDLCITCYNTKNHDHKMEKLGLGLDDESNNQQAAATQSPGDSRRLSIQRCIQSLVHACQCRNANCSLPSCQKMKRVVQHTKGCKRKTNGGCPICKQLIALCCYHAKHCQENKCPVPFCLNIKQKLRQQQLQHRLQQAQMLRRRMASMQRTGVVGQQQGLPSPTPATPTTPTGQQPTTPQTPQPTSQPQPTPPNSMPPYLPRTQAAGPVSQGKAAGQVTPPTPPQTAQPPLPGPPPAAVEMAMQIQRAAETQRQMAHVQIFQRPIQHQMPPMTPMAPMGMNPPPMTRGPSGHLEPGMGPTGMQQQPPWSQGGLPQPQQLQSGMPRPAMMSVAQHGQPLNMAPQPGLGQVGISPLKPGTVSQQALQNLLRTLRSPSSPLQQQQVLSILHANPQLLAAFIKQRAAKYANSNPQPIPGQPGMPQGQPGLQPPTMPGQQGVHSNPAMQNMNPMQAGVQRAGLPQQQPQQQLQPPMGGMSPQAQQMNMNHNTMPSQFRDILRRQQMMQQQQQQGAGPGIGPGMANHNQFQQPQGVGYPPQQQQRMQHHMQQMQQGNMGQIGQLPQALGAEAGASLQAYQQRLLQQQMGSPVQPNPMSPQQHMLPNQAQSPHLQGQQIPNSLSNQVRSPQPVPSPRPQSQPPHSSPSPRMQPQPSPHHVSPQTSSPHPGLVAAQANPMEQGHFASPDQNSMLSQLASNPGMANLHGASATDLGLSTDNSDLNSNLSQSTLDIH

A further experiment concerns KB cells. Kind of experiment: In vitro wound-healing assay. In kind it is cell-based. As to conditions: 24 h, in the presence of serum. How it is done: Cells in medium containing 10% FBS were seeded in 30 mm dishes. After the cells grew to confluence, wounds of constant diameter were made by sterile plastic pipette tip (200-μl) by scratching the monolayers. Cells were washed with the serum free medium twice and refreshed with medium with or without 10% FBS. Cells were treated with or without the HAT inhibitor for 24 h along with 10% serum. The wound photographs were taken under phase-contrast microscope. Serum positive and negative cells act as positive and negative control for the experiments respectively.

In experiment [2] the test system is H3 acetylation at the cyclin E promoter in KB cells. Kind of experiment: ChIP assay, acetylated H3 at cyclin E promoter. In kind it is cell-based. As to conditions: 24 hrs treatment. How it is done:
The pull-downs for ChIP assay was performed using anti-acetylated H3 (H3AcK9AcK14) (Santa Cruz) antibody. KB cells were maintained in DMEM supplemented with 10% FBS were treated with CTK7A and cells were grown for 24 hrs. For ChIP assay cells were processed as described elsewhere^47. The pulldown was done using antibody against the above antibody and the immunoprecipitated samples were deproteinized and ethanol-precipitated to recover the DNA. Real-time PCR analysis was performed using primers for the cyclin E promoter region. PCR primers for the cyclin E promoter region were […]

In another experiment the test system is KB cell tumors. The experiment is described as follows: Immunohistochemistry of KB cell tumors from treated mice. The class given is in vivo, nude mice (BALB/c). The procedure: After deparafinizing, slides were rinsed in ethanol. Antigen retrieval was performed with sodium citrate (10 mM pH 6.0) for 5 min at 98° C. The staining was performed with the Envision kit (Dako, Denmark). Counterstaining was performed with Mayer's haematoxylin, and mounted in DPX and air dried. Each of the sample specimens was pathologically confirmed before carrying out the immunohistochemistry. For statistical analysis, cells (100 cells from a total of 5-6 independent fields) were counted from both normal and tumor tissue sections and scored for percentage of positive cells (brown colour) for the indicated antibodies. For comparison one-way ANOVA was performed using “Sigmaplot Software”. P-value<0.01 was considered as statistically significant, n=31.
Animal experiments were performed with the approval by authorized ethics Committee. Sixteen nude mice (BALB/c) were included in the experiments (10 male and 6 female mice). Mice were kept in isolators in a pathogen free environment. All nude mice were 3-4 weeks old at the start of the experiments. KB cells, 2×10^6 cells were inoculated in each mice in the right and left flanks, respectively. Mice were then divided in two groups (5 males and 3 females) in each group. After the tumors grown to palpable in size, CTK7A treatment were given intraperitoneally (i.p) with 100 mg/kg body weight/twice a day. Tumors were measured once in three days with a caliper and their volumes were calculated by the formula: 0.52×D1×(D2)^2, where ‘D1’ and ‘D2’ are, respectively, the longest and shortest dimension. The last dose of the compound (CTK7A) was administered four hour before sacrificing it. Tumors were removed and put into liquid nitrogen or were fixed in 10% formalin for 1-2 h to make blocks to be used for IHC. For comparing tumor sizes between treated and control one-way ANOVA was performed using “Sigmaplot Software”. P-value<0.05 was considered as statistically significant.

The target of experiment [3] is T3, p300. Kind of experiment: HAT assay with recombinant p300. The class given is biochemical. Details: hexahistidine; made in house; host or cells: baculovirus-infected Sf21 cells. The procedure: as §1, §2

As for `COc1cc([O-])cc(C=CC2=NN(c3ccc(C(=O)[O-])cc3)C(C=Cc3cc([O-])cc(OC)c3)C2)c1.[Na+].[Na+].[Na+]` (stereo not drawn) [CTK7A, Sodium 4-(3,5-bis(3-methoxy-5-oxidostyryl)-4,5dihydro-1H-pyrazole-1-yl)benzoate], the “inhibition of CBP HAT activity” value on CBP is reported as “inhibit”. The “effect on Tip60 activity” value on Tip60 is on record as “unaffected”. Further, the “effect on SIRT2 activity” value on SIRT2 is “unaffected”. Further, the “inhibition of enhanced autoacetylation of p300” value at p300 [1] is on record as “inhibit”. Moreover, the wound healing activity entry with KB cells is listed as “reduction”. The “acetylation of H3 at the cyclin E promoter” value in experiment [2] is listed as “inhibited”. Moreover, in the experiment with KB cell tumors (i.p. 100 mg/kg twice a day), the “levels of COX2 in tumors (IHC)” value was “suppressed”; the “levels of GAPDH in tumors (IHC)” value was “down regulated”; the “levels of H3K9, K14 acetylation (H3AcK9AcK14) in tumors (IHC)” value is “decreased”; the “levels of NPM1 in tumors (IHC)” value is reported as “down regulated”. Also, in the experiment on KB cell tumors (i.p. 100 mg/kg twice a day), the “levels of ac-p300 in tumors (IHC)” value is “decreased”, the “levels of iNOS in tumors (IHC)” value is “down regulated”, the “p300 expression in tumors (IHC)” value is reported as “marginal affect” and the “proliferation marker Ki-67 in tumors (IHC)” value is listed as “down regulation”. For the same compound, the “nuclear GAPDH in tumors (IHC)” value with KB cell tumors (present in control mice) is “absent or very faintly present”. Besides, the “inhibition of H3K14 acetylation compared with H3K9 acetylation in tumors (IHC)” value in the experiment on KB cell tumors (site specific antibodies) is reported as “more potently”. Also, the “inhibition of p300 HAT activity” value on p300 [3] is on record as “inhibit”. For the same compound, the “type of inhibition pattern for p300” value at p300 [3] (both substrates, acetyl-coA and core histone, 0, 30 and 50 μM) is “non-competitive”.
